Test system: P. falciparum 3D7 growth, pLDH absorbance
Experiment: blood-stage malaria parasite growth potency – strain 3D7, dose response (AID 2305)

| Compound | IC50 |
| --- | --- |
| O=C(C=Cc1cc([N+](=O)[O-])ccc1Cl)N1CCC(CCN2CCC(c3c[nH]c4ccccc34)CC2)CC1 | 0.74 µM |
| CCN(CC)CCN(Cc1ccc(-c2ccc(C(F)(F)F)cc2)cc1)C(=O)Cn1c(CCc2cc(F)c(F)c(F)c2)nc(=O)c2ccccc21 | 0.83 µM |
| FC(F)(F)c1ccc2nc(-c3ccc(-c4cccc(CNCC5CCCO5)c4)cc3)[nH]c2c1 (configuration not stated) | 0.25 µM |
| O=S(=O)(Nc1cc2c(cc1OCc1ccccc1)CCN(C1CCC1)CC2)c1ccc(-c2ccc(Cl)cc2)cc1 | 1.14 µM |
| CC1(CCc2ccccc2)N=C(N)N(Cc2ccccc2)C(=O)C1c1ccc(Cl)c(Cl)c1 (configuration not stated) | 0.81 µM |
| Cc1ncccc1-c1cccc2c(NC(=O)Nc3ccc4nccc(N5CCN(C)CC5)c4c3)cccc12 | 0.63 µM |
| COc1ccc(-c2nc3c(N)nc(N)nc3nc2C(C)C)cc1 | 0.19 µM |
| CCNc1cc(C(=O)N[C@@H](Cc2cccc(F)c2)[C@H](O)CNC(C)CCCC(C)C)cc(N2CCCCS2(=O)=O)c1 (some centres not stated) | 0.6 µM |
| O=C(Cn1c(CCc2cccc(F)c2F)cc(=O)c2cccnc21)N(CCCn1ccnc1)Cc1ccc(-c2ccc(C(F)(F)F)cc2)cc1 | 0.8 µM |
| Cc1cc(N2Cc3ccccc3C2)nc(Nc2cccc(C#N)c2)n1 | 0.17 µM |
| C[C@H](Cc1ccc(S(=O)(=O)c2ccc(C[C@@H](C)NC[C@H](O)c3cccc(Cl)c3)cc2)cc1)NC[C@H](O)c1cccc(Cl)c1 | 0.26 µM |
| N#Cc1cccc(NC(=O)Nc2cccc(-c3cccc(-c4nc5ccc(C(F)(F)F)cc5[nH]4)c3)c2)c1 | 0.22 µM |
| CCn1c(SCC(=O)Nc2cc(C(F)(F)F)ccc2Cl)nc2ccccc2c1=O | 0.4 µM |
| CC1CCCCN1CCCNc1nc(NCc2ccccc2)c2ccccc2n1 (configuration not stated) | 0.95 µM |
| O=C(Nc1ccc(-c2nc3ccccc3[nH]2)cc1)c1ccc(S(=O)(=O)N2CCCCCC2)cc1 | 0.41 µM |
| C=CCn1ccc2c3c(N)nc(N)nc3ccc21 | 0.07 µM |
| COc1cc2nccc(Nc3ccc4c(cnn4Cc4ccccc4F)c3)c2cc1OC | 0.4 µM |
| O=C(Nc1ccc(-c2nc3ccccc3[nH]2)cc1)c1ccc(Cl)c([N+](=O)[O-])c1 | 0.8 µM |
| Cc1cc2nc(-c3ccc(SCC(=O)Nc4ccc5c(c4)OCCO5)nc3)[nH]c2cc1C | 0.99 µM |
| O=C(Nc1ccc2c(c1)CCN2C1CCN(Cc2ccc(F)cc2Cl)C1)c1ccco1 (configuration not stated) | 0.47 µM |
| COCCCn1c(=N)c(C(=O)NCCc2ccc(OC)cc2)cc2c(=O)n3cccc(C)c3nc21 | 1.03 µM |
| Cc1[nH]c(C)c(-c2ccc(C(=O)c3ccc(Cl)cc3)cc2)c(=O)c1Br | 0.81 µM |
| Cc1cccc2[nH]c(-c3ccc(-c4cccc(NC(=O)NCc5cccc(F)c5)c4)cc3)nc12 | 0.85 µM |
| CN(C)CCOc1ccc(NC(=O)Nc2ccnc3c(Br)cccc23)cc1Cl | 0.84 µM |
| c1cc(CN2CCCCC2)cc(-c2ccc(-c3nc4ccccc4[nH]3)cc2)c1 | 0.89 µM |

| Compound | IC50 |
| --- | --- |
| CN1CCN(Cc2ccc(-c3ccc4c(Nc5cc(O)c(Cl)cc5F)ccnc4c3)o2)CC1 | 0.11 µM |
| COc1ccc(NC(=O)[C@H](C)Nc2cc(C)nc(NCC3CCCCC3)n2)cc1 | 1.28 µM |
| NCC(=O)c1cc2c(cc1N)OCCO2 | 1.36 µM |
| CN1CCC(C(=O)Nc2ccc(-c3cccc(-c4nc5ccc(C(F)(F)F)cc5[nH]4)c3)cc2)CC1 | 0.58 µM |
| O=C(Nc1cccc(CN2CCCN(Cc3ccc(O)cc3)CC2)c1)c1cccc(C(F)(F)F)c1 | 0.31 µM |
| Cc1ccc(N2C(N)=NC(N)=NC2(C)C)cc1Cl | 0.01 µM |
| CC[C@H](C)CNC(=O)c1ccnc(-c2ccc(CN3CCC(N4CCCC4)CC3)cc2)c1 | 0.89 µM |
| O=C(NCCN1CCOCC1)c1ccc(-c2ccc(CNCCCc3ccccc3)cc2)nc1 | 0.78 µM |
| Cc1cccnc1Nc1nc(-c2ccccn2)cs1 | 0.69 µM |
| CC(C)c1ncc(-c2ccncc2)c(C2CCC(CNC(=O)c3cccnc3)CC2)n1 (configuration not stated) | 0.78 µM |
| COc1ccc2c(OC)cccc2c1CNCCCCCCNCc1c(OC)ccc2c(OC)cccc12 | 0.69 µM |
| COc1ccc2nccc([C@@H](O)CN3CCC(NCc4cnc5snnc5c4)C(F)C3)c2c1 (some centres not stated) | 1.35 µM |
| Cc1ccc2c(NN=Cc3ccc(N(C)C)cc3)cc(C)nc2c1 | 0.88 µM |
| O=C(Nc1ccc(OC2CCN(Cc3ccc(F)cc3)CC2)c(Cl)c1)c1ccc(F)cc1 | 0.19 µM |
| CCOC(=O)c1c(CSc2ccccc2)oc2cc(CN(C)C)c(O)c(Cl)c12 | 0.66 µM |
| Clc1ccc2c(NCc3ccccn3)ccnc2c1 | 0.66 µM |
| Fc1ccc2nc(-c3cccc(-c4ccc(CN5CCN(c6cnccn6)CC5)cc4)c3)[nH]c2c1 | 0.89 µM |
| Cc1cc(CN2CC[C@H](NC(=O)c3ccc(Cl)c(Cl)c3)C2)ccc1OCCCN(C)C | 0.84 µM |
| CCc1ccc(S(=O)(=O)Nc2ccc(CCN3CCC(N4CCCCC4)CC3)cc2)cc1 | 0.99 µM |
| CCNc1cc(C(=O)N[C@@H](Cc2cccc(Cl)c2)[C@H](O)CNC(C)CCCC(C)C)cc(N2CCCCS2(=O)=O)c1 (some centres not stated) | 0.29 µM |
| O=C(NC(=O)c1ccccc1)NC1CCN(c2ccnc3cc(Cl)ccc23)C1 (configuration not stated) | 0.58 µM |
| COc1ccc(CNCc2ccccc2)cc1-c1ccc(S(=O)(=O)NCCN2CCCC2)cc1 | 0.82 µM |
| COc1cc(CNC[C@@H](O)[C@H](Cc2ccccc2)NC(=O)c2cc(OC(C)C)cc(N3CCCS3(=O)=O)c2)cc(OC)c1 | 0.8 µM |
| COc1ccc(C2CC(c3cccs3)=NN2C(=O)COc2cccc3c2CCCC3O)cc1OC (configuration not stated) | 1.15 µM |
| COc1ccc(-c2ccc(NC(=O)c3cccc(Cl)c3)cc2)cc1CN(C)CCO | 0.71 µM |

| Compound | IC50 |
| --- | --- |
| CC(C)c1cc(Oc2c(I)cc(CCNCc3ccccc3)cc2I)ccc1O | 0.54 µM |
| O=C(CCc1cnc[nH]1)Nc1cccc(-c2ccc(-c3nc4ccccc4[nH]3)s2)c1 | 0.76 µM |
| CC(C)OC(=O)c1cccnc1SCC(=O)Nc1ccc(C(F)(F)F)cc1Cl | 0.4 µM |
| O=S(=O)(/C=C/c1ccccc1)N(Cc1ccc(-c2ccc(CNCCc3ccccc3)cc2)cc1)CC1CCCCN1 (configuration not stated) | 0.79 µM |
| O=C(/C=C/c1ccc(Cl)c(Cl)c1)N1CCC(CN2CCC(c3nc4ccccc4n3CCCO)CC2)CC1 | 0.84 µM |
| CN1CCC(NCc2ccc(S(=O)(=O)Nc3ccc(Oc4cccc(Cl)c4)cc3)cc2)CC1 | 0.74 µM |
| COc1cc(Br)c(S(=O)(=O)n2cc(CN3CCC(N)CC3)c3cc(Cl)ccc32)cc1OC | 0.99 µM |
| Nc1nc(N)c2cc(NS(=O)(=O)c3ccc(-c4ccccc4)cc3)ccc2n1 | 0.7 µM |
| Cc1cc(N[C@@H](CC(C)C)C(=O)NCCOc2ccccc2)nc(NCCc2ccc(F)cc2)n1 | 1.29 µM |
| COc1cc2nc(Nc3ccc(C)cc3)nc(Nc3ccc(C)cc3)c2cc1OC | 0.14 µM |
| CN(C)c1ccc(-c2csc(C(=O)NCC3CCN(Cc4cccc(C(F)(F)F)c4)C3)c2)cc1 (configuration not stated) | 0.84 µM |
| Fc1ccc2nc(-c3cccc(-c4cccc(CN5CCN(c6cnccn6)CC5)c4)c3)[nH]c2c1 | 1.06 µM |
| CC(Oc1ccc(Cl)cc1)C(=O)NCCC1CCN(CCCCCNC(=O)/C=C/c2ccc(Cl)c(Cl)c2)CC1 (configuration not stated) | 1.02 µM |
| COc1ccc2c(NN=Cc3ccccc3F)ccnc2c1 | 0.21 µM |
| CN(C)c1ccc(CN2CCC(CNC(=O)c3cc(-c4cccc(F)c4)cs3)C2)cc1 (configuration not stated) | 1.02 µM |
| Cc1nc(NCc2ccccc2)cc(NCC(O)c2ccc(O)cc2)n1 (configuration not stated) | 1.23 µM |
| CC(C)CCN1CCC(Oc2ccc(NC(=O)c3cccs3)cc2Cl)CC1 | 0.34 µM |
| CC(=O)CSC(C=Cc1ccc(N(C)C)cc1)=Nc1ccccc1 | 1.12 µM |
| Cc1cccc(CN2CCC(Oc3ccc(NC(=O)c4cccs4)cc3Cl)CC2)n1 | 0.84 µM |
| CN(C(=O)Cc1ccc(Cl)c(Cl)c1)C1CCN(CCCCCNC(=O)/C=C/c2ccc(Cl)c(Cl)c2)CC1 | 0.74 µM |
| Cc1cccc2[nH]c(-c3cccc(-c4cccc(C(=O)N5CCCCC5CN5CCC(O)C5)c4)c3)nc12 (configuration not stated) | 0.46 µM |
| COc1ccc2ccccc2c1C=NNc1ccnc2ccc(F)cc12 | 1.11 µM |
| CC(C)CNC(=O)CN1C(=O)C(c2ccccc2)(c2ccccc2)N=C1N | 0.82 µM |
| Cc1cc(C)cc(N2C(N)=NC(N)=NC2(C)C)c1 | 0.04 µM |
| CC=Cc1cc(Cc2cnc(N)nc2N)cc(CCC)c1OC | 0.78 µM |

| Compound | IC50 |
| --- | --- |
| CCOc1ccc(-c2noc(-c3c[nH]c4ccccc4c3=O)n2)cc1 | 0.21 µM |
| CCCC(C)N(Cc1ccc(C(C)(C)C)cc1)C(=O)c1cccc(C#N)c1 (configuration not stated) | 1.05 µM |
| CS(=O)(=O)c1ccc2c(c1)CCN(CCC1CCC(NC(=O)C(=Cc3ccc(Cl)cc3Cl)c3ccc(-c4ccccc4)cc3)CC1)CC2 (configuration not stated) | 1.17 µM |
| CC(C)(C)c1ccc(C(=O)Nc2cccc(Nc3c(C(=O)NCc4cccc(C(F)(F)F)c4)cnc4c(O)cccc34)c2)cc1 | 1.09 µM |
| Cc1cccc2[nH]c(-c3ccc(-c4cccc(NC(=O)CN5CCN(C)CC5)c4)s3)nc12 | 0.83 µM |
| O=C(c1ccc(F)c2ccccc12)N1CCc2cc3nccc(N4CCN5CCC[C@H]5C4)c3cc21 | 1 µM |
| O=C(Nc1ccnc2ccccc12)NC1CCN(Cc2ccccc2)CC1 | 0.99 µM |
| Cc1cc2nc(-c3ccc(C(=O)NCc4cccc(F)c4)cc3)[nH]c2cc1C | 0.96 µM |
| CC(C)c1ccc2c(c1)C(=O)c1ccc(C(=O)O)cc1S2(=O)=O | 0.47 µM |
| O=S(=O)(Nc1ccc(CCN2CCC(N3CCCCC3)CC2)cc1)c1ccc2ccccc2c1 | 1.01 µM |
| Nc1c(Cl)cc(C(O)CNCCCCCOCCCc2ccc(O)c3ncccc23)cc1Cl (configuration not stated) | 0.99 µM |
| N#Cc1cccc(NC(=O)Nc2ccc(CC(=O)N3CCc4cc(Cl)c(N5CCN(C/C=C/c6ccccc6)CC5)cc43)cc2)c1 | 0.87 µM |
| COc1cccc(NC(=O)c2ccc(NCCCN3CCC(C)CC3)c([N+](=O)[O-])c2)c1 | 0.77 µM |
| Cc1cccc2c(C3CCN(CC4CCC(NC(=O)/C=C/c5ccc(Cl)c(Cl)c5)CC4)CC3)c[nH]c12 (configuration not stated) | 1.03 µM |
| O=C(Nc1cccc(CN2CCCN(CCc3ccccc3)CC2)c1)c1ccc(Cl)c(Cl)c1 | 0.95 µM |
| COc1ccc(CN2CCC(CNC(C)c3cccc4ccccc34)CC2)cc1 (configuration not stated) | 0.18 µM |
| O=C(Nc1cc(Cl)cc(Cl)c1)c1cc(Cl)c(=O)n(Cc2cccc(Cl)c2)c1 | 0.75 µM |
| NC1CCN(c2nc(NCCCc3ccc(O)cc3)nc(NCc3cccc4ccccc34)n2)CC1 | 0.72 µM |
| CC1=C(C(=O)Nc2ccccc2)C(c2ccc([N+](=O)[O-])cc2)n2ncc(C(=O)Nc3ccccc3)c2N1 (configuration not stated) | 1.24 µM |
| O=C(NC1CCN(CCC[C@]2(c3ccc(Cl)c(Cl)c3)CCCN(C(=O)c3ccccc3)C2)CC1)c1ccc(Cl)cc1 | 0.9 µM |
| Cc1cc2c(/C=C/C(=O)NC3CCC(CCN4CCc5ccc(C#N)cc5CC4)CC3)cccc2[nH]1 (configuration not stated) | 0.84 µM |
| CCCC(=O)c1cnc2c(OCCCc3cnc[nH]3)cccc2c1Nc1c(C)cccc1C | 0.34 µM |
